Experimental data as given in US7405307B2, “Biphenylcarboxamides useful as lipid lowering agents” (Janssen Pharmaceutica N.V., priority 2000, dated 2008).

Tested on: not given
Experiment: not given
Settings: not given

Work on `COC(=O)C(NC/C=C/c1ccc(NC(=O)c2ccccc2-c2ccc(C(F)(F)F)cc2)cc1)c1ccccc1` (stereo not shown) [Compound 137] yielded a melting point of 142 °C.

Tested on: ApoB secretion, HepG2 cells
Experiment: Quantification of the secretion of ApoB
Type: cell-based
Settings: Homo sapiens, 24 hours of incubation with test compound, apoB immunoprecipitation, read-out: pIC50 values (= −log IC50 value) (converted)
Method: C. Pharmacological Examples C.1. Quantification of the Secretion of ApoB.
HepG2 cells were cultured in 24-well plates in MEM Rega 3 containing 10% fetal calf serum. At 70% confluency, the medium was changed and the test compound or carrier (DMSO, 0.4% final concentration) was added. After 24 hours of incubation, the medium was transferred to Eppendorf tubes and cleared by centrifugation. A sheep antibody directed against either apoB was added to the supernatant and the mixture was kept at 8° C. for 24 hours. Then, rabbit anti-sheep antibody was added and the immune complex was allowed to precipitate for 24 hours at 8° C. The immunoprecipitate was pelleted by centrifugation for 25 minutes at 1320 g and washed twice with a buffer containing 40 mM Mops, 40 mM NaH2PO4, 100 mM NaF, 0.2 mM DTT, 5 mM EDTA, 5 mM EGTA, 1% Triton-X-100, 0.5% sodium deoxycholate (DOC), 0.1% SDS, 0.2 μM leupeptin and 0.2 μM PMSF. Radioactivity in the pellet was quantified by liquid scintillation counting.
Resulting IC50 values are enumerated in Table C.1

First: COC(=O)C(NCCNc1ccc(NC(=O)c2ccccc2-c2ccc(C(F)(F)F)cc2)cc1)c1ccccc1 (stereo not shown) [Compound 1]
Second: COC(=O)C(NCCCNc1ccc(NC(=O)c2ccccc2-c2ccc(C(F)(F)F)cc2)cc1)c1ccccc1 (stereo not shown) [Compound 2]
The IC50 of the first is 4.5-fold lower: 71 nM for the first, 317 nM for the second.

Going from `COC(=O)C(c1ccccc1)N(C)CCCN(C)c1ccc(NC(=O)c2ccccc2-c2ccc(C(F)(F)F)cc2)cc1` (stereo not shown) [Compound 3] to `COC(=O)C(c1ccccc1)N(C)CCN(C)c1ccc(NC(=O)c2ccccc2-c2ccc(C(F)(F)F)cc2)cc1` (stereo not shown) [Compound 4], the IC50 falls from 766 nM to 98.4 nM (7.8-fold).

`COC(=O)C(NCC(C)(C)CNc1ccc(NC(=O)c2ccccc2-c2ccc(C(F)(F)F)cc2)cc1)c1ccccc1` (stereo not shown) [Compound 5] and `CCOC(=O)C(NCC(C)(C)CNc1ccc(NC(=O)c2ccccc2-c2ccc(C(F)(F)F)cc2)cc1)c1ccccc1` (stereo not shown) [Compound 10] are within 1.5-fold of each other in IC50: 1020 nM for the first, 948 nM for the second.

Compared with `COC(=O)C(NC1CCC(Nc2ccc(NC(=O)c3ccccc3-c3ccc(C(F)(F)F)cc3)cc2)CC1)c1ccccc1` (stereo not shown) [Compound 6], `CCOC(=O)C(NC1CCC(Nc2ccc(NC(=O)c3ccccc3-c3ccc(C(F)(F)F)cc3)cc2)CC1)c1ccccc1` (stereo not shown) [Compound 11] is 1.5-fold lower in IC50: 2070 nM for the first, 1370 nM for the second.

Compared with `CCOC(=O)C(NCCNc1ccc(NC(=O)c2ccccc2-c2ccc(C(F)(F)F)cc2)cc1)c1ccccc1` (stereo not shown) [Compound 7], `CCOC(=O)C(NCCCNc1ccc(NC(=O)c2ccccc2-c2ccc(C(F)(F)F)cc2)cc1)c1ccccc1` (stereo not shown) [Compound 8] is 2.6-fold lower in IC50: 330 nM for the first, 129 nM for the second.

`CCOC(=O)C(c1ccccc1)N(C)CCN(C)c1ccc(NC(=O)c2ccccc2-c2ccc(C(F)(F)F)cc2)cc1` (stereo not shown) [Compound 9] and `CCCOC(=O)C(c1ccccc1)N(C)CCN(C)c1ccc(NC(=O)c2ccccc2-c2ccc(C(F)(F)F)cc2)cc1` (stereo not shown) [Compound 15] are within 1.5-fold of each other in IC50: 566 nM for the first, 757 nM for the second.

`CCCOC(=O)C(NCCNc1ccc(NC(=O)c2ccccc2-c2ccc(C(F)(F)F)cc2)cc1)c1ccccc1` (stereo not shown) [Compound 12] and `CCCOC(=O)C(NCCCNc1ccc(NC(=O)c2ccccc2-c2ccc(C(F)(F)F)cc2)cc1)c1ccccc1` (stereo not shown) [Compound 13] are within 1.5-fold of each other in IC50: 689 nM for the first, 488 nM for the second.

Compared with `CCCOC(=O)C(c1ccccc1)N(C)CCCN(C)c1ccc(NC(=O)c2ccccc2-c2ccc(C(F)(F)F)cc2)cc1` (stereo not shown) [Compound 14], `CCCNC(=O)C(c1ccccc1)N(C)CCCN(C)c1ccc(NC(=O)c2ccccc2-c2ccc(C(F)(F)F)cc2)cc1` (stereo not shown) [Compound 26] is 2.1-fold higher in IC50: 938 nM for the first, 1970 nM for the second.

`CCCOC(=O)C(NCC(C)(C)CNc1ccc(NC(=O)c2ccccc2-c2ccc(C(F)(F)F)cc2)cc1)c1ccccc1` (stereo not shown) [Compound 16] and `CCCNC(=O)C(NCC(C)(C)CNc1ccc(NC(=O)c2ccccc2-c2ccc(C(F)(F)F)cc2)cc1)c1ccccc1` (stereo not shown) [Compound 28] are within 1.5-fold of each other in IC50: 1260 nM for the first, 1490 nM for the second.

`CCCOC(=O)C(NC1CCC(Nc2ccc(NC(=O)c3ccccc3-c3ccc(C(F)(F)F)cc3)cc2)CC1)c1ccccc1` (stereo not shown) [Compound 17] and `CCCNC(=O)C(NC1CCC(Nc2ccc(NC(=O)c3ccccc3-c3ccc(C(F)(F)F)cc3)cc2)CC1)c1ccccc1` (stereo not shown) [Compound 29] are within 1.5-fold of each other in IC50: 809 nM for the first, 753 nM for the second.

Going from `CCNC(=O)C(NCCNc1ccc(NC(=O)c2ccccc2-c2ccc(C(F)(F)F)cc2)cc1)c1ccccc1` (stereo not shown) [Compound 18] to `CCNC(=O)C(NCCCNc1ccc(NC(=O)c2ccccc2-c2ccc(C(F)(F)F)cc2)cc1)c1ccccc1` (stereo not shown) [Compound 19], the IC50 rises from less than 30 nM to 229 nM.

Going from `CCNC(=O)C(c1ccccc1)N(C)CCCN(C)c1ccc(NC(=O)c2ccccc2-c2ccc(C(F)(F)F)cc2)cc1` (stereo not shown) [Compound 20] to `CCNC(=O)C(c1ccccc1)N(C)CCN(C)c1ccc(NC(=O)c2ccccc2-c2ccc(C(F)(F)F)cc2)cc1` (stereo not shown) [Compound 21], the IC50 falls from 1930 nM to 506 nM (3.8-fold).

Compared with `CCNC(=O)C(NCC(C)(C)CNc1ccc(NC(=O)c2ccccc2-c2ccc(C(F)(F)F)cc2)cc1)c1ccccc1` (stereo not shown) [Compound 22], `CCCNC(=O)C(NCCNc1ccc(NC(=O)c2ccccc2-c2ccc(C(F)(F)F)cc2)cc1)c1ccccc1` (stereo not shown) [Compound 24] is 6-fold lower in IC50: 1030 nM for the first, 171 nM for the second.

`CCNC(=O)C(NC1CCC(Nc2ccc(NC(=O)c3ccccc3-c3ccc(C(F)(F)F)cc3)cc2)CC1)c1ccccc1` (stereo not shown) [Compound 23] and `CCNC(=O)C(c1ccccc1)N1CCC(Nc2ccc(NC(=O)c3ccccc3-c3ccc(C(F)(F)F)cc3)cc2)CC1` (stereo not shown) [Compound 110] are within 1.5-fold of each other in IC50: 1570 nM for the first, 1170 nM for the second.

Compared with `CCCNC(=O)C(NCCCNc1ccc(NC(=O)c2ccccc2-c2ccc(C(F)(F)F)cc2)cc1)c1ccccc1` (stereo not shown) [Compound 25], `CCCNC(=O)C(NC1CCN(c2ccc(NC(=O)c3ccccc3-c3ccc(C(F)(F)F)cc3)cc2)C1)c1ccccc1` (stereo not shown) [Compound 117] is lower in IC50: 948 nM for the first, less than 30 nM for the second.

First: CCCNC(=O)C(c1ccccc1)N(C)CCN(C)c1ccc(NC(=O)c2ccccc2-c2ccc(C(F)(F)F)cc2)cc1 (stereo not shown) [Compound 27]
Second: CCCNC(=O)C(c1ccccc1)N(C)C1CCN(c2ccc(NC(=O)c3ccccc3-c3ccc(C(F)(F)F)cc3)cc2)C1 (stereo not shown) [Compound 116]
The IC50 of the first is 6.6-fold higher: 625 nM for the first, 94.8 nM for the second.

`COC(=O)C(NC1CCN(c2ccc(NC(=O)c3ccccc3-c3ccc(C(F)(F)F)cc3)cc2)CC1)c1ccccc1` (stereo not shown) [Compound 98] and `CCOC(=O)C(NC1CCN(c2ccc(NC(=O)c3ccccc3-c3ccc(C(F)(F)F)cc3)cc2)CC1)c1ccccc1` (stereo not shown) [Compound 103] are within 1.5-fold of each other in IC50: 1580 nM for the first, 1600 nM for the second.

Compared with `COC(=O)C(c1ccccc1)N(C)C1CCN(c2ccc(NC(=O)c3ccccc3-c3ccc(C(F)(F)F)cc3)cc2)C1` (stereo not shown) [Compound 100], `CCOC(=O)C(c1ccccc1)N(C)C1CCN(c2ccc(NC(=O)c3ccccc3-c3ccc(C(F)(F)F)cc3)cc2)C1` (stereo not shown) [Compound 104] is lower in IC50: 41.7 nM for the first, less than 30 nM for the second.

Going from `COC(=O)C(NC1CCN(c2ccc(NC(=O)c3ccccc3-c3ccc(C(F)(F)F)cc3)cc2)C1)c1ccccc1` (stereo not shown) [Compound 101] to `CCOC(=O)C(NC1CCN(c2ccc(NC(=O)c3ccccc3-c3ccc(C(F)(F)F)cc3)cc2)C1)c1ccccc1` (stereo not shown) [Compound 105], the IC50 rises from 40.9 nM to 183 nM (4.5-fold).

Compared with `CCOC(=O)C(c1ccccc1)N1CCC(Nc2ccc(NC(=O)c3ccccc3-c3ccc(C(F)(F)F)cc3)cc2)CC1` (stereo not shown) [Compound 102], `CCCOC(=O)C(c1ccccc1)N1CCC(Nc2ccc(NC(=O)c3ccccc3-c3ccc(C(F)(F)F)cc3)cc2)CC1` (stereo not shown) [Compound 106] is lower in IC50: greater than 3000 nM for the first, 3000 nM for the second.

Compared with `CCCOC(=O)C(NC1CCN(c2ccc(NC(=O)c3ccccc3-c3ccc(C(F)(F)F)cc3)cc2)CC1)c1ccccc1` (stereo not shown) [Compound 107], `CCCOC(=O)C(NC1CCN(c2ccc(NC(=O)c3ccccc3-c3ccc(C(F)(F)F)cc3)cc2)C1)c1ccccc1` (stereo not shown) [Compound 109] is 10-fold lower in IC50: 1570 nM for the first, 150 nM for the second.

First: CCCOC(=O)C(c1ccccc1)N(C)C1CCN(c2ccc(NC(=O)c3ccccc3-c3ccc(C(F)(F)F)cc3)cc2)C1 (stereo not shown) [Compound 108]
Second: CCNC(=O)C(c1ccccc1)N(C)C1CCN(c2ccc(NC(=O)c3ccccc3-c3ccc(C(F)(F)F)cc3)cc2)C1 (stereo not shown) [Compound 112]
The IC50 of the first is 1.8-fold higher: 69 nM for the first, 39.4 nM for the second.

Compared with `CCNC(=O)C(NC1CCN(c2ccc(NC(=O)c3ccccc3-c3ccc(C(F)(F)F)cc3)cc2)CC1)c1ccccc1` (stereo not shown) [Compound 111], `CCCNC(=O)C(NC1CCN(c2ccc(NC(=O)c3ccccc3-c3ccc(C(F)(F)F)cc3)cc2)CC1)c1ccccc1` (stereo not shown) [Compound 115] is 2.7-fold higher in IC50: 348 nM for the first, 948 nM for the second.

Going from `CCNC(=O)C(NC1CCN(c2ccc(NC(=O)c3ccccc3-c3ccc(C(F)(F)F)cc3)cc2)C1)c1ccccc1` (stereo not shown) [Compound 113] to `CCCNC(=O)C(c1ccccc1)N1CCC(Nc2ccc(NC(=O)c3ccccc3-c3ccc(C(F)(F)F)cc3)cc2)CC1` (stereo not shown) [Compound 114], the IC50 rises from 10.7 nM to 2610 nM (240-fold).
